In article PMC5620277, “The histone methyltransferase EZH2 as a druggable target in SHH medulloblastoma cancer stem cells” (Oncotarget, 2017):

Key:
DAOY cells = assay: Western Blot of H3K27me3 and PCNA in DAOY cells; assay type: cell-based; details: 5 μM, 48 h
Method: (§1) To evaluate cell viability cells were plated at a density of 5×10^3 cells/well in 96-well plates and were incubated with MTS solution (CellTiter 96® AQueous One Solution Promega).
(§2) Western blots were performed according to standard procedures. Briefly, protein lysates were prepared using RIPA buffer with fresh protease inhibitors. Lysates were separated on SDS polyacrylamide gels. Proteins were transferred on nitrocellulose membrane (0.45 micron) (PerkinElmer). Membranes were blocked for 1 h at room temperature in 5% nonfat dry milk and incubated overnight at 4°C with antibodies against EZH2 (4905S Cell signaling), H3K27me3 (07-449 Millipore), PCNA (2586 Cell signaling), ACTIN (I-19 sc-1616; Santa Cruz Biotechnology), GAPDH (ab9484, Abcam), cleaved CSP-3 (D-175 9661S; Cell Signaling) and H3 (ab1971, Abcam). HRP-conjugated secondary antibodies (Santa Cruz Biotechnology) were used in combination with enhanced chemiluminescence (ECL Amersham).

MLL1 complex = MLL1 complex (Homo sapiens, UniProt Q03164); assay: Methyltransferase panel: MLL1 complex; assay type: biochemical; details: substrate nucleosomes
Method: (§3) MC3629 was tested in the cell free enzymatic assay (EZH2/PRC2) in 10-dose IC50 mode with 2-fold serial dilution starting from 400 μM solution, using various histone substrates (histone H3/H4 octamer, histone H3/H4 tetramer, histone H3, and core histone) and SAM as the co-substrate. […] (Figure 2B, and Supplementary Figure 2).
(§4) The appropriate methyltransferase (MT) substrate (0.05 mg/ml core histone for EZH1 complex, 0.05 mg/ml oligonucleosomes for DOT1L, 5 μM histone H3 (1-21) peptide for G9a, 0.05 mg/ml nucleosomes for MLL1 complex, 0.05 mg/ml core histone for SET7/9, 5 μM histone H4 for PRMT1, and 0.001 mg/ml poly(dI-dC) for DNMT1) was added in freshly prepared Reaction Buffer (50 mM Tris-HCl (pH 8.5), 5 mM MgCl2, 50 mM NaCl, 0.01% Brij35, 1 mM DTT, 1% DMSO). The MT enzyme was delivered into the substrate solution and the mixture was mixed gently. Afterwards, the tested compound dissolved in DMSO was delivered into the enzyme/substrate reaction mixture by using Acoustic Technology (Echo 550, LabCyte Inc. Sunnyvale, CA) in nanoliter range, and 1 μM ^3H-SAM was also added into the reaction mixture to initiate the reaction. The reaction mixture was incubated for 1 h at 30°C and then it was delivered to filter-paper for detection. The data were analyzed using Excel and GraphPad Prism software for IC50 curve fits (for EZH1 complex).

DAOY-SLCs = assay: Western Blot of H3K27me3 and PCNA in DAOY-SLCs; assay type: cell-based; details: 5 μM, 48 h
Method: as §1, §2

hMB-SLCs [1] = assay: Cell viability, MTS assay, hMB-SLCs; assay type: cell-based, human
Method: In both cell lines, we determined the lowest useful dose of MC3629 (5 μM) and the minimum effective time (48 h) (Figure 2D, 2E and Supplementary Figure 4A and 4B for data at 24 and 72 h). We next evaluated the performance of MC3629 on MB-SLCs in terms of cell viability in regards to other EZH2i in use, confirming the dose selection (Supplementary Figure 4C).
as §1

hMB-SLCs [2] = assay: Self-renewal, clonogenic assay, hMB-SLCs; assay type: cell-based, human; details: 5 μM
Method: For self-renewal assessment, clonogenic assay was performed as previously described. Briefly: oncospheres were disaggregated with non-enzymatic cell dissociation buffer (Sigma) and cells were plated at clonal density (1-2 cells/mm^2) into 96-well plates and cultured for an appropriate number of days (7-15) until oncospheres were countable.

hMB-SLCs [3] = assay: Western Blot of H3K27me3, PCNA, cleaved caspase 3 in hMB-SLCs; assay type: cell-based, human; details: 5 μM, 48 h
Method: as §1, §2

SET7/9 = biological target: T1, SET7/9 (Homo sapiens, UniProt Q8WTS6); assay: Methyltransferase panel: SET7/9; assay type: biochemical; details: substrate histone H3/H4 octamer
T1 sequence (Q8WTS6 1-366): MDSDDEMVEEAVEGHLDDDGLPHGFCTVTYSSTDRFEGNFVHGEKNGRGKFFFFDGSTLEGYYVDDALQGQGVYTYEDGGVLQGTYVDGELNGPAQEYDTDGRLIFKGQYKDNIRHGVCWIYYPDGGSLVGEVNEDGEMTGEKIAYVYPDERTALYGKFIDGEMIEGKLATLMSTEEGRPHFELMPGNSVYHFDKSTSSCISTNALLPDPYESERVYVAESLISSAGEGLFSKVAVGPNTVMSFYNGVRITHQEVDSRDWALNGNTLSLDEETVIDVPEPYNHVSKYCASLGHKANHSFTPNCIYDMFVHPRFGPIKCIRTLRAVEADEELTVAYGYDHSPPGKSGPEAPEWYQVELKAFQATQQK
Method: as §3, §4

neural stem cells (NSC) = assay: Western Blot of H3K27me3 and PCNA in neural stem cells (non-transformed cells); assay type: cell-based; details: 5 μM, 48 h
Method: as §2

[4] = tested on: DAOY-SLCs orthotopic tumors (XT-MB); assay: Xenograft DAOY-SLCs orthotopic tumors (XT-MB) in nude mice; assay type: in vivo, mouse; details: 20 μMoles/Kg i.p. twice a week for 3 weeks
Method: Next, we generated xenograft DAOY-SLCs orthotopic tumors (XT-MB) in nude mice that grew as tumor masses with the characteristics of MBs.
DAOY-SLCs were stereotaxically implanted into the cerebellum of nude mice by using the following coordinates according to the atlas of Franklin and Paxinos: 6.6 mm posterior to the bregma; 1 mm lateral to the midline; and 2 mm ventral from the surface of skull of mice, under ketamine (100 mg/kg, i.p.)/xylazine (10 mg/kg, i.p.) anesthesia. Cells (2×10^5 per 3 μl) were implanted at an infusion rate of 1 μl/min. Mice were separated into two groups. Group 1 (n=8) was intraperitoneally treated with MC3629 (20 μMoles/Kg) suspended in 10% (2-Hydroxypropyl)-β-cyclodextrin +1%DMSO (Sigma), Group 2 (n=8) was treated with 10% (2-Hydroxypropyl)-β-cyclodextrin +1%DMSO (Sigma). After 21 days of treatment, animals were sacrificed and brains were formalin fixed and paraffin embedded. Brain tumor volume calculation: Serial thick coronal sections (2 μm) starting from mesencephalon to the end of cerebellum were performed. The analysis was performed on 20 sections, sampled every 40 μm on the horizontal plan of the cerebellum, in which the tumor was identified and outlined at 2.5X magnification.
Every 40 μm of brain slice, hematoxylin and eosin (H&E) staining was performed. Tumor area of every slice was evaluated with a microscope (Axio Imager M1 microscope) equipped with a motorized stage and software Image Pro Plus 6.2. The following formula was used to calculate brain tumor volume: tumor volume = sum of (measured area for each slice x slice thickness x sampling frequency).
Paraffin-embedded sections were deparaffinized, and stained with either H&E or immunohistochemical stains as specified. Heat-induced epitope retrieval was performed with citrate buffer pH 6. Sections were incubated with ki67 primary antibody (Thermo Scientific) for 1 h. Ki67 expression was expressed as percentages of total cells with labeled nuclei.

Cc1cc(C)c(CNC(=O)c2cnn(-c3ccccc3)c2C)c(=O)[nH]1 [MC3629, N-((4,6-dimethyl-2-oxo-1,2-dihydropyridin-3-yl)methyl)-5-methyl-1-phenyl-1H-pyrazole-4-carboxamide]
H3K27me3 and PCNA levels (DAOY cells): impaired | inhibition at 200 µM (MLL1 complex): 20.7% | H3K27me3 and PCNA levels (DAOY-SLCs): down modulated | minimum effective time, cell viability (hMB-SLCs [1]): 48 h | cell viability, combination with shEZH2 versus shEZH2 alone (hMB-SLCs [1]; 5 μM, 48 h): did not display any additive effect | lowest useful dose, cell viability (hMB-SLCs [1]; dose- and time-dependent experiments): 5 µM | self-renewal (hMB-SLCs [2]): significantly reduced | H3K27me3 and PCNA protein levels (hMB-SLCs [3]): significantly impaired | apoptosis, level of cleaved caspase 3 (hMB-SLCs [3]): induced apoptosis | inhibition at 200 µM (SET7/9): 5.2% | H3K27me3 and PCNA protein levels (neural stem cells (NSC)): did not observe any effects | H3K27me3 in tumor xenografts ([4]; Western Blot): reduction | NANOG protein in tumors ([4]; Western Blot): significantly lower levels | apoptosis, level of cleaved caspase 3 in XT-MB ([4]; Western Blot): induction of apoptosis | proliferating Ki67-positive cells in tumors ([4]; immunostaining): significant reduction | XT-MB growth (xenograft volume) ([4]; nude mice): significantly impaired
